# System: T cells from MiHA-negative individuals
# Assay: Immunogenicity: T cells primed with MiHA-pulsed autologous dendritic cells, IFNγ ELISpot and intracellular cytokine staining
# Type: cell-based, human
# Conditions: T cells from four MiHA-negative individuals primed with autologous dendritic cells pulsed with synthetic MiHA; re-exposed to MiHA vs no peptide or irrelevant peptide
# Experimental: Determination of the immunogenicity of the identified MiHAs. T cells and monocytes were purified from 100-150×10^6 PBMCs obtained from MiHA-negative individuals using MACS® cell separation columns (Miltenyi Biotec®) or EasySep™ kits (Stemcell Technologies®). Monocyte-derived dendritic cells were generated as previously described (3) and matured with GM-CSF, IL-4, PGE2, TNFα, IL-1β, IL-6 and IFNγ. These dendritic cells were then irradiated at 40 Gy and pulsed with 2 μg/mL of the synthetic MiHA peptide (GLRX3-1^S, WDR27-1^L, MIIP-2^E, or RASSF1-1^S) or an irrelevant peptide (Epstein-Barr virus LMP2^426-434) that was used a negative control. Pulsed or unpulsed dendritic cells were then co-cultured with previously enriched autologous T cells (5×10^5/well) in 48-well plates in advanced RPMI medium supplemented with 10% of human serum, 1% of L-Glutamine and 30 ng/mL of IL-21 at a 1:4 (stimulator:effector) ratio. Supplemented media with IL-7 and IL-15 was added after 3, 5 and 7 days of culture and cells were transferred in 12-well plates and 6-well plates at day 5 and 7, respectively. After 10 days of culture, T cells were harvested to determine antigen reactivity with ELISpot for IFNγ and polyfunctional intracellular cytokine staining. Briefly, ELISpot analysis was performed according to the manufacturer's instructions (MABtech®) and intracellular staining was performed after restimulation with 5 μg/mL of peptide in the presence of Brefeldin A for 4 hours. […] Acquisition was performed with a BD™ LSR II flow cytometer and data were analyzed using Flowlogic™ software (Inivai Technologies®).
# As a proof of principle, the immunogenicity of four novel MiHAs was tested: GLRX3-1^S, MIIP-2^E, RASSF1-1^S and WDR27-1^L (FIGS. 3A-3D). […] Read-out of antigen-reactivity was assessed by ELISpot (FIG. 3A) and intracellular staining assays (FIGS. 3B-3D).
row,Substance,cytokine production by primed T cells (antigen-reactivity by ELISpot and intracellular staining)
1,EESAVPE/KRSW (EESAVPERSW) [MIIP-2^E],produced cytokines in a MiHA-specific fashion in all tested donors
2,"FLS/PSANEHL [GLRX3-1^S, synthetic peptide tested for immunogenicity]",produced cytokines in a MiHA-specific fashion in all tested donors
3,S/AEIEQKIKEY (SEIEQKIKEY) [RASSF1-1^S],produced cytokines in a MiHA-specific fashion in all tested donors

# Source: patent publication US20190359681A1, “NOVEL MINOR HISTOCOMPATIBILITY ANTIGENS AND USES THEREOF” (UNIVERSITÉ DE MONTRÉAL, priority 2015, published 2019)
